The results in this text go back to ChEMBL document CHEMBL1152560, “Substituted 2-arylbenzothiazoles as kinase inhibitors: hit-to-lead optimization” (Bioorg Med Chem, 2009).

In assay [1] the target is T1, Serine/threonine-protein kinase DCLK2 (Homo sapiens) (UniProt Q8N568).
T1 sequence (whole entry): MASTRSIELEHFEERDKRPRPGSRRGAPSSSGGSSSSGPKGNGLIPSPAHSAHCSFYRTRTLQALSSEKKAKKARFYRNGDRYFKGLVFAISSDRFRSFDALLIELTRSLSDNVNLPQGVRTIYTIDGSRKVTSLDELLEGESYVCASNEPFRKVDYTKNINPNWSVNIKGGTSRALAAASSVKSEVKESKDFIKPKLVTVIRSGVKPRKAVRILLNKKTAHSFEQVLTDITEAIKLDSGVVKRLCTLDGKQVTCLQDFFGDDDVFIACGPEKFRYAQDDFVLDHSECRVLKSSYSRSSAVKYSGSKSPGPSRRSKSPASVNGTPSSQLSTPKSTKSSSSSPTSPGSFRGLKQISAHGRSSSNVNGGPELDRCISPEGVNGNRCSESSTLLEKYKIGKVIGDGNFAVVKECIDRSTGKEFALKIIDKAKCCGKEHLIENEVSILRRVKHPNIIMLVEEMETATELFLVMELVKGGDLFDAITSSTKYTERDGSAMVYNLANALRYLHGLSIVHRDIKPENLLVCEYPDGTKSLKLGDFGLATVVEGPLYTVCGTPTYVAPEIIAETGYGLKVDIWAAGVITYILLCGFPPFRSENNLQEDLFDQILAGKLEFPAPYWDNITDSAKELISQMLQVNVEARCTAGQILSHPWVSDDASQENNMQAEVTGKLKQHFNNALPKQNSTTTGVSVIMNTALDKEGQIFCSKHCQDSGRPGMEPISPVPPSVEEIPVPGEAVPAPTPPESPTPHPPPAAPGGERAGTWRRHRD
Description: Residual activity of DCAMKL2 at 0.1 uM by microplate scintillation counting.

Assay [2] addresses T2, Discoidin domain-containing receptor 2 (Homo sapiens) (UniProt Q16832).
T2 sequence (whole entry): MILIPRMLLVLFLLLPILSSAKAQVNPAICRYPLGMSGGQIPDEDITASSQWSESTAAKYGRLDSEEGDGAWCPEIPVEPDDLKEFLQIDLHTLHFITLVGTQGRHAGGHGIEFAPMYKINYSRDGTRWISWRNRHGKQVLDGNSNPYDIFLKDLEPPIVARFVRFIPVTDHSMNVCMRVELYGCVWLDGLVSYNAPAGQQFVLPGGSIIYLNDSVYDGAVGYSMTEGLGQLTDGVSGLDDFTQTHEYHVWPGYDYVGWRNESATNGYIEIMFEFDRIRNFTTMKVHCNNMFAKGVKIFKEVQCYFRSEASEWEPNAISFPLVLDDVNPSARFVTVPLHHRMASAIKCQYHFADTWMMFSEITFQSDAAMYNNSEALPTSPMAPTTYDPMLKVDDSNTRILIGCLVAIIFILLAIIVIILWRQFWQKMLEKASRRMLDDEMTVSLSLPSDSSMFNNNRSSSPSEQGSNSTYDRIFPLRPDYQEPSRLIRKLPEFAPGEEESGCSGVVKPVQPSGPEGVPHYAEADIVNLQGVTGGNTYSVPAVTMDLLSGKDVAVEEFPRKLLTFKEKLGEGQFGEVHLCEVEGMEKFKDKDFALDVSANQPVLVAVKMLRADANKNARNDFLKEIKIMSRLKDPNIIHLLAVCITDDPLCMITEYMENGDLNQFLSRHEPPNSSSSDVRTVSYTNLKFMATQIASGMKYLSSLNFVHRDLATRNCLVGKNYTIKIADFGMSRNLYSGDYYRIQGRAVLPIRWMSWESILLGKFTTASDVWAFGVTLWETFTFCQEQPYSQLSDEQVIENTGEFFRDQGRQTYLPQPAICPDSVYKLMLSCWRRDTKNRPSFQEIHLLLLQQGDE
Description: Residual activity of DDR2 at 1 uM by microplate scintillation counting.

Assay [3] concerns the target Receptor-interacting serine/threonine-protein kinase 2 (Homo sapiens) (UniProt O43353). Description: Residual activity of RIPK2 at 0.1 uM by microplate scintillation counting.
For assay [4], the target named is T3, Eukaryotic translation initiation factor 2-alpha kinase 3 (Homo sapiens) (UniProt Q9NZJ5).
T3 sequence (whole entry): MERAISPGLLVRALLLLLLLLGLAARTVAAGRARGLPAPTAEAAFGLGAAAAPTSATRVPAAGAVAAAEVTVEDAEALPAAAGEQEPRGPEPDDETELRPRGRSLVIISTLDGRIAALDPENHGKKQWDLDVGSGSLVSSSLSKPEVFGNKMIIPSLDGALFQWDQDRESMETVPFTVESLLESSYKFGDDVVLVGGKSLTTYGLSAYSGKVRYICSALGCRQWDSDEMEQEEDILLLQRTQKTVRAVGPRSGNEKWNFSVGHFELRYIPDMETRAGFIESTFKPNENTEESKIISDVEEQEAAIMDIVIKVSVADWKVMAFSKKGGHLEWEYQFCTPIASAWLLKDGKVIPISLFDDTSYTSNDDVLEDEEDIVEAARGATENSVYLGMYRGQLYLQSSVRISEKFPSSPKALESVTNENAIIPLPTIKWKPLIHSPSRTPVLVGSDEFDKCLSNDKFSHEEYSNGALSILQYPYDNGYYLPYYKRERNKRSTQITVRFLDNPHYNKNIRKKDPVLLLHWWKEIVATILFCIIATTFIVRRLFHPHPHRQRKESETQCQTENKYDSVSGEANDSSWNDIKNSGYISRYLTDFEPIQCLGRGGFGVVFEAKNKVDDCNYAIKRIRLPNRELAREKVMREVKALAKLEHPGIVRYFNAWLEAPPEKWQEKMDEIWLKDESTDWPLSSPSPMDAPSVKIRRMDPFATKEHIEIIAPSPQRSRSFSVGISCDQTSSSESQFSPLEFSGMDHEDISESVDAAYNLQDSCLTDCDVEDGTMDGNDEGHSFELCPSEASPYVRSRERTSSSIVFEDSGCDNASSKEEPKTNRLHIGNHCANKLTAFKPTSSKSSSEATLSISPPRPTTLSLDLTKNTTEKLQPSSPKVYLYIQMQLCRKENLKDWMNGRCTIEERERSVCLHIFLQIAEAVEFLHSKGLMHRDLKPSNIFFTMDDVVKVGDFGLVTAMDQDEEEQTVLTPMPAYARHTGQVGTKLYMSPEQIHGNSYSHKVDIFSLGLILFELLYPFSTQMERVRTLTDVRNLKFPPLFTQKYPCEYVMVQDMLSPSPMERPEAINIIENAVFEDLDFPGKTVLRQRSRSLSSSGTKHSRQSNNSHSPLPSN
Description: Residual activity of EIF2AK3 at 10 uM by microplate scintillation counting.

For assay [5], the target named is Serine/threonine-protein kinase MARK2 (Homo sapiens) (UniProt Q7KZI7). Description: Residual activity of MARK2 at 10 uM by microplate scintillation counting.
Sequence of Serine/threonine-protein kinase MARK2 (Homo sapiens) (Q7KZI7 whole entry): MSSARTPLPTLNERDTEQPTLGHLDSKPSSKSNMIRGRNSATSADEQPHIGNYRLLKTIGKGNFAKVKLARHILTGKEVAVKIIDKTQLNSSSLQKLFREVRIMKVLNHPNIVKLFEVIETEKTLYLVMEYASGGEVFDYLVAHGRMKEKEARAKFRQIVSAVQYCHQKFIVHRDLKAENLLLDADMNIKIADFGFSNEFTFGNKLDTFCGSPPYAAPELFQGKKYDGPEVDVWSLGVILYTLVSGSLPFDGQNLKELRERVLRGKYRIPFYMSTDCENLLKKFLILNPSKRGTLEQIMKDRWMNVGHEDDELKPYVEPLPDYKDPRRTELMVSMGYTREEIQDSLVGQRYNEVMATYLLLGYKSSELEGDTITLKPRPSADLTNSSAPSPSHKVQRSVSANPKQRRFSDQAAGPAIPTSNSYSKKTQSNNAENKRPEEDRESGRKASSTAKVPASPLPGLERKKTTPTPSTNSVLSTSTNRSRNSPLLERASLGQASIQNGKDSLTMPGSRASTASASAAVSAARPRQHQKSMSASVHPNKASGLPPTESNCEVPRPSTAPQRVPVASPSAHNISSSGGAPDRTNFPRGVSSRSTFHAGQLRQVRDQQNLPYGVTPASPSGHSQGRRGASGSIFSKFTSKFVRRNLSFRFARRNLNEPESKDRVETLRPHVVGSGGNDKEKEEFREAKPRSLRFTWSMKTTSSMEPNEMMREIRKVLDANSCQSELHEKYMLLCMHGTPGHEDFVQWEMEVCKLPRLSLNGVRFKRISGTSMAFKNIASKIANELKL
For assay [6], the target named is Cyclin-dependent kinase 5/CDK5 activator 1 (Homo sapiens) (UniProt Q00535+Q15078). Description: Residual activity of CDK5/p25NCK at 0.1 uM by microplate scintillation counting. Type of assay: protein-complex assay.
Sequence of Cyclin-dependent kinase 5/CDK5 activator 1 (Homo sapiens) (Q00535 whole entry): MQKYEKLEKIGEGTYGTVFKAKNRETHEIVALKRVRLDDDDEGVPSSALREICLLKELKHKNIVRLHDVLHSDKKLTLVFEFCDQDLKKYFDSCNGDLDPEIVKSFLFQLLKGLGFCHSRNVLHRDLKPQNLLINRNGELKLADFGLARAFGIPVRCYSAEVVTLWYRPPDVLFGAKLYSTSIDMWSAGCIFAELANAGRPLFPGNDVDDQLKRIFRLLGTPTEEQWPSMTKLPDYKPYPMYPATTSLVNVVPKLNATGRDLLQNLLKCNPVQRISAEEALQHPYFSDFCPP
Sequence of Cyclin-dependent kinase 5/CDK5 activator 1 (Homo sapiens) (Q15078 99-307 partner limits assumed): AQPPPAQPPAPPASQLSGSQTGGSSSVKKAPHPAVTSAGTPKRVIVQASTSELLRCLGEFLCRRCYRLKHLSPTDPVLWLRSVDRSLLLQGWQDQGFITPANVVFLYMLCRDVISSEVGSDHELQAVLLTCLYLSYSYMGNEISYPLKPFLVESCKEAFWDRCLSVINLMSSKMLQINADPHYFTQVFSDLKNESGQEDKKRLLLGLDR

Sequence of Receptor-interacting serine/threonine-protein kinase 2 (Homo sapiens) (O43353 whole entry): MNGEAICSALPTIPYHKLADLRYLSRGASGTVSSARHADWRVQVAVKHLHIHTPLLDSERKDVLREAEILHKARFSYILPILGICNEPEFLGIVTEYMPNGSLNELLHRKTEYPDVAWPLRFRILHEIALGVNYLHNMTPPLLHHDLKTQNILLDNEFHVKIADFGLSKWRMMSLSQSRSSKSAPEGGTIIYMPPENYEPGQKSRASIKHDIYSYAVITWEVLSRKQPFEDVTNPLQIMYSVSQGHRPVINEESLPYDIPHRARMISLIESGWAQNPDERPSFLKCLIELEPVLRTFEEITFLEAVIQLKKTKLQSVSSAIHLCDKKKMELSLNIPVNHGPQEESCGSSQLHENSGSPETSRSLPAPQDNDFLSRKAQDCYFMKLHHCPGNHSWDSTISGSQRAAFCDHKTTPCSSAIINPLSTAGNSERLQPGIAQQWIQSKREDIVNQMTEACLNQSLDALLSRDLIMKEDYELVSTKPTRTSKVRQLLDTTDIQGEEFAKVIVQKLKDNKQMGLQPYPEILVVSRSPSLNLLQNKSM

Regarding `COc1cc2c(Oc3ccc(-c4nc5ccccc5s4)cc3)ncnc2cc1OCCCN1CCN(C)CC1`, the residual activity in assay [1] came out at 66%; in assay [2], 79%; in assay [3], 78%; in assay [4], 256%; in assay [5] it was 67%; in assay [6], 78%.
With `COc1cc2c(Oc3ccc(-c4nc5ccccc5s4)cc3)ncnc2cc1OCCCN1CCCC1`, the residual activity in assay [1] was determined as 87%; in assay [2] it was 99%; in assay [3], 79%; in assay [4] it was 239%; in assay [5], 72%; in assay [6], 90%.
For `COc1cc2c(Oc3ccc(-c4nc5ccccc5s4)cc3F)ncnc2cc1OCCCN1CCN(C)CC1`, the residual activity in assay [1] stood at 80%; in assay [2], 88%; in assay [3] it was 72%; in assay [4], 155%; in assay [5], 60%; in assay [6] it was 87%.
